Assay results: patent US8758816B2, “Compositions comprising azelastine and methods of use thereof” (priority 2004, dated 2014)

Assays:
[1] = test system: patients with seasonal allergic rhinitis (SAR); assay: MP 428 study: adverse events, Safety Population; format: in vivo, human
Protocol: A two-week, randomized, double-blind study, which evaluated the effects of the co-administration of ASTELIN® (azelastine hydrochloride (HCl)) and FLONASE® (fluticasone propionate) compared to either product alone in patients with seasonal allergic rhinitis (SAR) was conducted during the 2006 Texas mountain cedar season. After a 5-day placebo lead-in period, 151 patients with moderate-to-severe allergic rhinitis symptoms were randomized to either: (1) (49 total patients) ASTELIN® (azelastine hydrochloride (HCl)) plus placebo saline nasal spray 2 sprays per nostril, 15 minutes apart, twice daily (AM & PM); (2) (50 total patients) FLONASE® (fluticasone propionate) plus placebo saline nasal spray, 2 sprays per nostril, 15 minutes apart, once daily (AM) and two sessions of placebo saline nasal spray, 2 sprays per nostril, 15 minutes apart (PM); or (3) (52 total patients) the co-administration of ASTELIN® (azelastine hydrochloride (HCl)) 2 sprays per nostril plus FLONASE® (fluticasone propionate) 2 sprays per nostril (AM), 15 minutes apart, and ASTELIN® (azelastine hydrochloride (HCl)) 2 sprays per nostril plus placebo saline nasal spray, 15 minutes apart, (PM) for a 2-week double-blind treatment period.
The most common adverse events (AEs) were bitter taste (8.2% in ASTELIN® (azelastine hydrochloride (HCl)) group, 2.0% in FLONASE® (fluticasone propionate) group, 13.5% in co-administration group) and headache (4.1% in ASTELIN® (azelastine hydrochloride (HCl)) group, 4.0% in FLONASE® (fluticasone propionate) group, 5.8% in co-administration group). No other AE was reported by more than one patient in any treatment group. There were no discontinuations due to AEs.

[2] = test system: patients with seasonal allergic rhinitis (SAR); assay: MP 428 study: Adult Rhinoconjunctivitis Quality of Life Questionnaire outcomes, change from baseline; format: in vivo, human; settings: Day 14/ET; Intent-to-Treat Population

Question: Which results are given for `CCC(=O)O[C@]1(C(=O)SCF)[C@H](C)C[C@H]2[C@@H]3C[C@H](F)C4=CC(=O)C=C[C@]4(C)[C@@]3(F)[C@@H](O)C[C@@]21C` [Fluticasone, fluticasone propionate]?
Answer: Treatment-Emergent AE: MYALGIA ([1]; max severity Mild): 0 (0.0) No. of Patients (%); Treatment-Emergent AE: NASAL DISCOMFORT ([1]; max severity Mild): 0 (0.0) No. of Patients (%); Treatment-Emergent AE: NECK PAIN ([1]; max severity Mild): 0 (0.0) No. of Patients (%); Treatment-Emergent AE: NERVOUS SYSTEM DISORDERS, Any Preferred Term ([1]; max severity Mild): 2 (4.0) No. of Patients (%); Treatment-Emergent AE: PHARYNGOLARYNGEAL PAIN ([1]; max severity Mild): 0 (0.0) No. of Patients (%); Treatment-Emergent AE: RESPIRATORY, THORACIC AND MEDIASTINAL DISORDERS, Any Preferred Term ([1]; max severity Mild): 0 (0.0) No. of Patients (%); Treatment-Emergent AE: STOMACH DISCOMFORT ([1]; max severity Mild): 0 (0.0) No. of Patients (%); Treatment-Emergent AE: Any Adverse Event ([1]; max severity Moderate): 1 (2.0) No. of Patients (%); Treatment-Emergent AE: DRY MOUTH ([1]; max severity Moderate): 0 (0.0) No. of Patients (%); Treatment-Emergent AE: DYSGEUSIA ([1]; max severity Moderate): 0 (0.0) No. of Patients (%); Treatment-Emergent AE: EAR AND LABYRINTH DISORDERS, Any Preferred Term ([1]; max severity Moderate): 0 (0.0) No. of Patients (%); Treatment-Emergent AE: EAR PAIN ([1]; max severity Moderate): 0 (0.0) No. of Patients (%); Treatment-Emergent AE: EPISTAXIS ([1]; max severity Moderate): 0 (0.0) No. of Patients (%); Treatment-Emergent AE: GASTROINTESTINAL DISORDERS, Any Preferred Term ([1]; max severity Moderate): 1 (2.0) No. of Patients (%); Treatment-Emergent AE: HEADACHE ([1]; max severity Moderate): 0 (0.0) No. of Patients (%); Treatment-Emergent AE: MUSCULOSKELETAL AND CONNECTIVE TISSUE DISORDERS, Any Preferred Term ([1]; max severity Moderate): 0 (0.0) No. of Patients (%); Treatment-Emergent AE: MYALGIA ([1]; max severity Moderate): 0 (0.0) No. of Patients (%); Treatment-Emergent AE: NASAL DISCOMFORT ([1]; max severity Moderate): 0 (0.0) No. of Patients (%); Treatment-Emergent AE: NECK PAIN ([1]; max severity Moderate): 0 (0.0) No. of Patients (%); Treatment-Emergent AE: NERVOUS SYSTEM DISORDERS, Any Preferred Term ([1]; max severity Moderate): 0 (0.0) No. of Patients (%); Treatment-Emergent AE: PHARYNGOLARYNGEAL PAIN ([1]; max severity Moderate): 0 (0.0) No. of Patients (%); Treatment-Emergent AE: RESPIRATORY, THORACIC AND MEDIASTINAL DISORDERS, Any Preferred Term ([1]; max severity Moderate): 0 (0.0) No. of Patients (%); Treatment-Emergent AE: STOMACH DISCOMFORT ([1]; max severity Moderate): 1 (2.0) No. of Patients (%); Treatment-Emergent AE: Any Adverse Event ([1]; max severity Severe): 0 (0.0) No. of Patients (%); Treatment-Emergent AE: DRY MOUTH ([1]; max severity Severe): 0 (0.0) No. of Patients (%); Treatment-Emergent AE: DYSGEUSIA ([1]; max severity Severe): 0 (0.0) No. of Patients (%); Treatment-Emergent AE: EAR AND LABYRINTH DISORDERS, Any Preferred Term ([1]; max severity Severe): 0 (0.0) No. of Patients (%); Treatment-Emergent AE: EAR PAIN ([1]; max severity Severe): 0 (0.0) No. of Patients (%); Treatment-Emergent AE: EPISTAXIS ([1]; max severity Severe): 0 (0.0) No. of Patients (%); Treatment-Emergent AE: GASTROINTESTINAL DISORDERS, Any Preferred Term ([1]; max severity Severe): 0 (0.0) No. of Patients (%); Treatment-Emergent AE: HEADACHE ([1]; max severity Severe): 0 (0.0) No. of Patients (%); Treatment-Emergent AE: MUSCULOSKELETAL AND CONNECTIVE TISSUE DISORDERS, Any Preferred Term ([1]; max severity Severe): 0 (0.0) No. of Patients (%); Treatment-Emergent AE: MYALGIA ([1]; max severity Severe): 0 (0.0) No. of Patients (%); Treatment-Emergent AE: NASAL DISCOMFORT ([1]; max severity Severe): 0 (0.0) No. of Patients (%); Treatment-Emergent AE: NECK PAIN ([1]; max severity Severe): 0 (0.0) No. of Patients (%); Treatment-Emergent AE: NERVOUS SYSTEM DISORDERS, Any Preferred Term ([1]; max severity Severe): 0 (0.0) No. of Patients (%); Treatment-Emergent AE: PHARYNGOLARYNGEAL PAIN ([1]; max severity Severe): 0 (0.0) No. of Patients (%); Treatment-Emergent AE: RESPIRATORY, THORACIC AND MEDIASTINAL DISORDERS, Any Preferred Term ([1]; max severity Severe): 0 (0.0) No. of Patients (%); Treatment-Emergent AE: STOMACH DISCOMFORT ([1]; max severity Severe): 0 (0.0) No. of Patients (%); adverse event: bitter taste ([1]; share of treatment group): 2.0%; adverse event: headache ([1]; share of treatment group): 4.0%; RQLQ Change From Baseline in Activity, LS Mean [2]: −1.52; RQLQ Change From Baseline in Activity, Mean [2]: −1.50; RQLQ Change From Baseline in Activity, Median [2]: −1.33; RQLQ Change From Baseline in Emotional, LS Mean [2]: −1.42; RQLQ Change From Baseline in Emotional, Mean [2]: −1.50; RQLQ Change From Baseline in Emotional, Median [2]: −1.25; RQLQ Change From Baseline in Eye Symptoms, LS Mean [2]: −1.51; RQLQ Change From Baseline in Eye Symptoms, Mean [2]: −1.53; RQLQ Change From Baseline in Eye Symptoms, Median [2]: −1.75; RQLQ Change From Baseline in Nasal Symptoms, LS Mean [2]: −1.72; RQLQ Change From Baseline in Nasal Symptoms, Mean [2]: −1.74; RQLQ Change From Baseline in Nasal Symptoms, Median [2]: −1.50; RQLQ Change From Baseline in Non-nose/eye Symptoms, LS Mean [2]: −1.19; RQLQ Change From Baseline in Non-nose/eye Symptoms, Mean [2]: −1.23; RQLQ Change From Baseline in Non-nose/eye Symptoms, Median [2]: −1.14; RQLQ Change From Baseline in Overall Score, LS Mean [2]: −1.47; RQLQ Change From Baseline in Overall Score, Mean [2]: −1.49; RQLQ Change From Baseline in Overall Score, Median [2]: −1.37; RQLQ Change From Baseline in Practical Problems, LS Mean [2]: −1.74; RQLQ Change From Baseline in Practical Problems, Mean [2]: −1.76; RQLQ Change From Baseline in Practical Problems, Median [2]: −1.67; RQLQ Change From Baseline in Sleep, LS Mean [2]: −1.23; RQLQ Change From Baseline in Sleep, Mean [2]: −1.26; RQLQ Change From Baseline in Sleep, Median [2]: −1.33
